How the values were obtained:
[1] = tested on: PIK3CA-mutant or amplified tumor xenograft models; assay: In vivo antitumor activity in tumor xenograft models; details: xenograft models such as breast, head and neck, and ovarian cancers
From the text: (§1) (hereinafter, “Compound I”). […] As of Mar.

[2] = tested on: advanced solid malignancies carrying an alteration in the PIK3CA gene; assay: Phase I clinical trial, single agent treatment, radiologic response (RECIST 1.0); assay type: in vivo, human; details: out of 131 patients evaluable for radiologic response, as of Mar. 10, 2014
From the text: as §1

For `Cc1nc(NC(=O)N2CCC[C@H]2C(N)=O)sc1-c1ccnc(C(C)(C)C(F)(F)F)c1` [Compound I, (S)-Pyrrolidine-1,2-dicarboxylic acid 2-amide 1-({4-methyl-5-[2-(2,2,2-trifluoro-1,1-dimethyl-ethyl)-pyridin-4-yl]-thiazol-2-yl}-amide)], the “in vivo antitumor activity” value [1] was “dose-dependent antitumor activity”, the “patients with partial response to treatment” value ([2]; PIK3CA-altered solid tumors) was 15 patients and the “patients with stable disease” value [2] was 68 patients.

Reference: patent US20190314353A1, “Pharmaceutical Compositions Comprising Alpelisib” (Novartis AG, priority 2014, published 2019)
